We go through five compounds from patent US20250101004A1, “NOVEL KALIRIN INHIBITORS FOR REGULATION OF SYNAPTIC PLASTICITY AND NEUROPATHIC PAIN TREATMENT” (Northwestern University, priority 2022, published 2025).

Where two headings read alike, the source gives them in different places.

The target of series [1] is T1, kalirin GEF domain (Homo sapiens, UniProt O60229). Nature of the series: Fluorescence thermal shift (FTS) binding to kalirin GEF domain.
For a further series, the target named is T2, kalirin (Homo sapiens, UniProt O60229).
T2 construct: intrinsic activity of RAC1 in the absence of kalirin's GEF domain (No GEF)
Nature of the series: Miniaturized high-throughput GEF assay with bodipy-GDP loaded RAC1. The class given is biochemical. The method, then:
FIG. 11 illustrates that reaction rates from FIG. 10 were assessed and plotted against concentration.
This was assessed using a miniaturized high-throughput GEF assay, utilizing fluorescently labelled GDP (bodipy-GDP) loaded RAC1.

The test system of the next series is HEK293T cells. The note with it: 24 hours, Cell-titre Glo. The protocol: Cell viability was assessed by cell-titre glo assay. […] Indicated values indicate the required concentration to reduce viability by 50%.
Compound was incubated with heterologous cells (HEK293T) for 24 hours, and cell death was measured using the Cell-titre Glo assay.

In series [2] the test system is primary cultured rat neurons. Nature of the series: Multi-electrode array (MEA) analysis of electrical activity of primary cultured neurons. The class given is cell-based. The protocol:
FIG. 16A-16F show multi-electrode array analyses of the electrical activity of primary cultured neurons was assessed in the presence of compound B04, alongside the known RAC1 inhibitor NSC23776. […] Dose response analysis confirmed activity of B04 (123 μM, FIG. 16D and FIG. +16F). However, NSC23766 (FIG. 16C and FIG. 16E) had 10× efficacy (7.4 μM) compared to previous results.
Indicated PP01 analogues were incubated with rat primary cultured cortical neurons at 50 μM to assess the ability to recapitulate PP01s ability to inhibit neuronal activity.
48 well multi-electrode arrays (MEAs) were seeded with 50,000 primary cultured rat neurons and grown to 3WIV. Cells were incubated with NSC23766 or B04 at 50 and 100 μM for 4 hours alongside vehicle control (1% DMSO, FIG. 16A-16B). Neuronal activity was assessed in terms of weighted mean firing rate (number of events per second across active electrodes) and burst frequency (>5 events in 100 ms within a single electrode) and network burst frequency (FIG. 16A-16D).
DRC curve analyses of NS23766 (FIGS. 16C and 16E) and B04 (FIGS. 16D and 16F) was performed to assess compound efficacy. […] This is likely due to reported off-target inhibition of NMDAr (Hou et al 2014).
Plate was treated with vehicle control or B04 for 4 hours. The % change from baseline was recorded. […] Drug resistance from overexpression is a known phenomenon, supporting target engagement (Palmer et al, 2014).

The target in series [3] is T1, kalirin GEF domain. Nature of the series: Cellular GEF assay (RAC-Glisa) in cells transfected with kalirin-GEF domain. The class given is cell-based. Also noted: Cells were transfected with the kalirin-GEF domain; expressed in transfected cells; host or cells: HEK293T (inferred from the same paragraph's toxicity test; the sentence on transfection says only 'Cells'). An excerpt: Known compound, NSC23766 (FIGS. 14A and 14C), was run alongside B04 (FIGS. 14B and 14D) to confirm GEF inhibition (IC50 of NSC23766 matches published results).

For `Cc1cc2cc(Nc3ccnc(Nc4ccc5[nH]c(C)cc5c4)n3)ccc2[nH]1` [AZA1], the “binding to kalirin by FTS (thermodynamic stability of kalirin GEF domain)” value (from here on “binding to kalirin by FTS”) at kalirin GEF domain [1] was “not bind to kalirin”. For the same compound, the “inhibition of kalirin biochemical GEF activity” value at kalirin was “inhibited GEF activity”. For the same compound, the “cellular toxicity / tolerability” value with HEK293T cells was “Only NSC23766 and B04 were well tolerated”.

For `CCN(CC)CCCC(C)Nc1nc(C)cc(Nc2ccc3nc(C)cc(N)c3c2)n1` (stereo not shown) [NSC23766], in series [2] (4 hours, 50 and 100 μM), the burst frequency result is on record as “reduced” and the “firing rate (weighted mean firing rate)” value is “reduced”. The “inhibitory efficacy in neurons compared to published reports and cellular activity” value in series [2] (fold greater) stood at 10 ×. Also, the IC50 in series [2] (primary cultured neurons, 4 hours treatment, FIG. 16C-16F, read-out: dose response activity on neuronal electrical activity) was determined as 7.4 µM. Moreover, the “binding to kalirin by FTS” value on kalirin GEF domain [1] is recorded as “not bind to kalirin”. For the same compound, the “inhibition of kalirin biochemical GEF activity” value on kalirin is “inhibited GEF activity”. Further, the “cellular toxicity / tolerability” value with HEK293T cells is listed as “well tolerated”. In addition, the “inhibition of kalirin activity (RAC1 activation)” value against kalirin GEF domain [3] was “inhibit kalirin activity”.

On to `O=C1C=CC(=O)N1c1cccc([N+](=O)[O-])c1` [NPPD], for which the “binding to kalirin by FTS” value at kalirin GEF domain [1] is on record as “not bind to kalirin”. Besides, on kalirin, the “inhibition of kalirin biochemical GEF activity” value was “inhibited GEF activity”. For the same compound, the “cellular toxicity / tolerability” value in the series on HEK293T cells is “Only NSC23766 and B04 were well tolerated”.

In the case of `CC(C)c1cn2c(NC(=O)Cc3c[nH]c4ccccc34)cccc2n1` [NW12, 2-(1H-indol-3-yl)-N-[2-(propan-2-yl)-1H-imidazo[1,2-a]pyridine-5-yl]acetamide], the IC50 in series [2] (PP01 analogues, FIG. 31A-31C, read-out: IC50, inhibition of neuronal activity) was under 5 µM. In addition, the “inhibition of neuronal activity” value in series [2] (rat primary cultured cortical neurons, 50 μM, 4 and 24 hours) was “inhibited activity robustly”. In the series with HEK293T cells, the “cellular toxicity / tolerability” value is “suitable for in vitro cellular studies”.

On to `O=C1C=C2C(=CCOC2O)O1` (stereo not shown) [patulin], for which the “binding to kalirin by FTS” value on kalirin GEF domain [1] is given as “bond to kalirin”. Further, the “inhibition of kalirin biochemical GEF activity” value on kalirin was “inhibited GEF activity”.
